Test results as given in patent US20040029860A1, “Anti-proliferative drugs” (priority 2000, published 2004).
Like-named read-outs stand apart in the source and are kept apart here.

How the values were obtained:
mouse melanoma (B-16) = test: cell viability, melanoma B16; type: cell-based; conditions: Mus musculus
Procedure: (§1) Cyclic antidepressants at varying concentrations (between 10PM and 100 μM) was applied to neuroblastoma SH-SY5T, 3LL lung carcinoma, prostate (LN-CapAp), melanoma B16, and cell viability was determined as described above.

[1] = system: mouse melanoma B16 MDR cells; test: cell viability, melanoma B16 MDR; type: cell-based
different cell-lines = test: mean IC50 over cell lines and therapeutic index
HaCat I5 keratinocytes = test: keratinocyte viability, Neutral red, HaCat I5; type: cell-based, human
Procedure: (§2) The drugs were administered at concentrations within the range of 5-100 μM and cell viability was measured 24 hr post-administration by Neutral red staining. The efficiency of the agents against viability of the cell lines was evaluated also by comparison with two commonly used anticancer agents (Doxorubicin and 5-fluorouracil (5-FU)) at equimolar concentrations.

mouse lung sarcoma (3LL) = test: cell viability, lung 3LL; type: cell-based; conditions: Mus musculus; Table 1B; read-out: Cell viability IC50 Lungs Sarcoma 3LL
Procedure: In another experiment the effect of clotiapine at the same concentrations on the viability of mouse lung carcinoma (3LL) cells was determined.
as §1

[2] = system: human prostate (LN-CapAp); test: cell viability, prostate LN-Cap; type: cell-based; conditions: Homo sapiens, LNCaP
Procedure: The effect of trifluoperazine and flupentixol was studied in two cell-lines of human prostate cancer: androgen dependent (LN-Cap) and androgen independent (PC-3).
as §1

HaCat keratinocytes = test: keratinocyte viability, Neutral red, HaCat; type: cell-based, human; conditions: for IC50: Homo sapiens, HaCaT
Procedure: as §2

B16 melanoma cells = test: sensitization to doxorubicin, B16 melanoma cells; type: cell-based, mouse; conditions: B16 melanoma cells, FIG. 6D
[3] = system: human neuroblastoma (SH-SY5T); test: cell viability, neuroblastoma SH-SY5T; type: cell-based; conditions: for IC50: Homo sapiens
Procedure: The effect of paroxetine on primary tissue cultures was also evaluated. […] The viability of the cells after treatment with paroxetine was determined by neutral red (NR) technology 24 hr. post treatment.
as §1

[4] = system: mouse Lewis lung carcinoma (3LL); test: in vivo effect on Lewis lung carcinoma (3LL) in mice; conditions: 3LL inoculated C57 mice, i.p. daily, thioridazine 15 mg/kg, others 30 mg/kg
Procedure: Female C57 black mice aged 4 weeks were used in order to evaluate the in vivo effect of cyclic psychotropic agents on tumor cells. In particular, animals were divided into 5 groups (6-8 mice each). Animals were inoculated with mouse Lewis lung carcinoma (3LL, 0.5 million each) by i.v. injection to the tail vein and then treated by i.p. injection daily for 3 weeks with the following different agents
(5) Paroxetine (30 mg/kg).
During the treatment period animals were inspected daily and their body weight registered twice a week. […] After the four weeks of treatment the mice were sacrificed and their lungs dissected and weighted.

[5] = system: HaCat II-4RT keratinocytes; test: keratinocyte viability, Neutral red, HaCat II4; type: cell-based; conditions: Homo sapiens
Procedure: as §2

[6] = system: mouse-selected embryo, neuronal culture; test: primary tissue culture, neuronal; type: cell-based; conditions: data not shown
[7] = system: rat new born myocytic culture; test: primary tissue culture, myocytic; type: cell-based; conditions: data not shown
rat glioblastoma (C6) = test: cell viability, glioma C6; type: cell-based; conditions: Rattus norvegicus; Table 1A
human breast (MCF7) = test: cell viability, breast MCF7; type: cell-based; conditions: Table 1A
[8] = system: Neuroblastoma cell line (SK-NSH); test: apoptosis by flow cytometry of propidium iodide stained cells; type: cell-based, human; conditions: after 24 and 48 hours at 20 μM and higher; FIG. 7
Procedure: The percentage of apoptosis of the cells was determined by flow cytometry of propidium iodide stained cells using a fluorescence-activated cell sorter (FACScan) (Becton and Dickenson, Heidelberg, Calif.) equipped with an argon ion laser (an excitation wavelength, […]) and a doublet discrimination module (DDM). Lysis II (BD) software was used for data acquisition.

[9] = system: human neuroblastoma (SK-N-SH); test: cell viability (neutral red, Almar Blue, Hoechst dye), neuroblastoma SK-N-SH; type: cell-based; conditions: Homo sapiens, SK-N-SH; Table 1A
p53 mutant = p53 mutant expression, western blotting in glioma C6; type: cell-based, rat; conditions: 60 μM, FIG. 8
Colon Ht-29 = test: cell viability, colon Ht-29; type: cell-based; conditions: Homo sapiens, Table 1A
[10] = Homo sapiens, HaCaT, mean of the determinations, read-out: IC50 HaCat I5 ME
[11] = Homo sapiens, HaCaT, single determinations, read-out: IC50 HaCat I5

## Fc1ccc([C@@H]2CCNC[C@H]2COc2ccc3c(c2)OCO3)cc1 [Paroxetine]
Mouse melanoma (B-16); Example 9, read-out: IC50 levels, wild type B16 mouse melanoma
  IC50: 15 to 20 µM
Mouse melanoma (B-16); Table 1B, read-out: Cell viability IC50 Melanoma 16B
  IC50: 12 µM
[1]; B16, Example 9, FIG. 9, read-out: IC50 levels, transformed (MDR) B16 melanoma
  IC50: 15 to 20 µM
[1]; Table 1B, read-out: Cell viability IC50 Melanoma B16 MDR
  IC50: 11 µM
Different cell-lines; read-out: IC50 Mean +/− SD
  IC50: 12.4 µM
HaCat I5 keratinocytes; 5-100 μM, 24 hr, Neutral red, FIG. 13B, 15B
  cell viability HaCat I5 (in words): effective in reducing cell viability
HaCat I5 keratinocytes; [10]
  IC50: 21 µM
HaCat I5 keratinocytes; [11]
  IC50: 21 µM
Mouse lung sarcoma (3LL)
  IC50: < 10 µM
[2]; Table 1B, read-out: Cell viability IC50 Prostate LN-Cap
  IC50: 16 µM
HaCat keratinocytes; 5-100 μM, 24 hr, Neutral red, FIG. 13A, 15A
  cell viability HaCat (in words): effective in reducing cell viability
B16 melanoma cells
  potentiation of doxorubicin (in words): same effect
[3]; 10 μM to 100 μM, neutral red, 24 hr post treatment, vs primary mouse brain and selected neurons, FIG. 1
  sensitivity of neuroblastoma cells compared to primary tissue (viability): increased sensitivity
[3]; Table 1B, read-out: Cell viability IC50 Neuroblastoma SH-SY5T
  IC50: 15 µM
[4]
  survival rate during four weeks of treatment: 5/6
[4]; FIG. 5
  lungs weight / tumor size compared to control group: effective in reducing tumor size
[5]
  IC50: 12 µM

## OCCN1CCN(CCCN2c3ccccc3Sc3ccc(Cl)cc32)CC1 [Perphenazine]
Mouse melanoma (B-16); Table 1A, read-out: Viability IC50 Melanoma B16
  IC50: 23 µM
Different cell-lines; read-out: IC50 Mean ± SD
  IC50: 20 ± 2.7 µM
HaCat I5 keratinocytes; [10]
  IC50: 26 µM
HaCat I5 keratinocytes; [11]
  IC50: 30 µM
HaCat I5 keratinocytes; single determinations, read-out: IC50 HaCat I5
  IC50: 22 µM
[6]
  IC50: 60 µM
[7]
  IC50: 35 to 55 µM
[2]; Table 1A, read-out: Viability IC50 Prostate LN-Cap
  IC50: 18 µM
Rat glioblastoma (C6)
  IC50: 22 µM
HaCat keratinocytes; mean of the determinations, read-out: IC50 HaCat ME
  IC50: 24 µM
HaCat keratinocytes; single determinations, read-out: IC50 HaCat
  IC50: 24 µM
Human breast (MCF7)
  IC50: 21 µM
[3]; Table 1A, read-out: Viability IC50 Neuroblastoma SH-SY5T
  IC50: 15 µM
[8]
  apoptosis (in words): mortal and dramatic apoptosis
[9]
  IC50: 21 µM
p53 mutant
  mean decrease in expression of p53 mutant: 30%
Colon Ht-29
  IC50: 22 µM
